Values quoted from earlier work as cited in patent US9511078B2, “Self-nanoemulsion of poorly soluble drugs” (Kashiv Pharma, LLC, priority 2013, dated 2016).

What was measured:
[1] = high-fat meal (57% fat, 825 calories)

Compound	Log P	Abiraterone AUC0-∞, fold higher with food [1]	Abiraterone Cmax, fold higher with food [1]
CC(=O)[C@H]1CC[C@H]2[C@@H]3CCC4=CC(=O)CC[C@]4(C)[C@H]3CC[C@]12C [Progesterone, pregn-4-ene-3,20-dione]	3.5		
CC(=O)O[C@H]1CC[C@@]2(C)C(=CC[C@@H]3[C@@H]2CC[C@]2(C)C(c4cccnc4)=CC[C@@H]32)C1 [Abiraterone acetate]		~10 fold	approximately 17 fold
